Measured values published in patent US12617783B2, “Heterocyclic GLP-1R agonists” (BIOMEA FUSION, INC., priority 2024, dated 2026).
pEC50: −log10 of the molar value.

The compounds below were run against T1, human GLP-1R (Homo sapiens, UniProt P43220) (assay: GLP-1R cAMP assay (Example B1a, HTRF, 30 min at room temperature)). Details: cAMP accumulation in HEK293 expressing human GLP-1R, no BETP, 30 min room temperature (Method B1a, compounds ID 1-609), Table 1; read-out: EC50.
T1 construct: host or cells: HEK293
T1 sequence (P43220 24-463): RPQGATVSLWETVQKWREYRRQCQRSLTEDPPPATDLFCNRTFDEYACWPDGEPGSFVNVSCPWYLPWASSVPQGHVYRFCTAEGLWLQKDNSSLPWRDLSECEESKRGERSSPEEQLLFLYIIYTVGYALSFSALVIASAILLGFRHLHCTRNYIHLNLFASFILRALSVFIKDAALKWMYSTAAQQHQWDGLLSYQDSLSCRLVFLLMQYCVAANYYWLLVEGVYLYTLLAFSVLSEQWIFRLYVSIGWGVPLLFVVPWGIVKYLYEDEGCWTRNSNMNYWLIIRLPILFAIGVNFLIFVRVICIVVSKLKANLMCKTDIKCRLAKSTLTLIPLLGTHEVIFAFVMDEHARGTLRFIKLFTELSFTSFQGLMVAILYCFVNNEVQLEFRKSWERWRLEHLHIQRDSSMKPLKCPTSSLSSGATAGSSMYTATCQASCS
Type: cell-based
Method in brief: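 Competitive HTRF read-out of cAMP after 30 min room-temperature stimulation, BETP absent, of human GLP-1R-HEK293 cells (1,000/well) in HEPES buffer with 500 μM IBMX and 0.1% BSA. Activation normalised to GLP-1(7-37) positive control. EC50 from 4-parameter non-linear regression.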

SMILES	pEC50
Cc1cc(-n2nc3c(c2-n2ccn(-c4ccc5c(cnn5C)c4F)c2=O)[C@@H]2CCC[C@H](C3)N2S(=O)(=O)c2cc3cc(C4CCOCC4)ccc3n2[C@@]2(c3noc(=O)[nH]3)C[C@@H]2C)cc(C)c1F [Compound 533, 3-[(1S,2S)-1-[2-[[(1S,8R)-4-(4-fluoro-3,5-dimethyl-phenyl)-3-[3-(4-fluoro-1-methyl-indazol-5-yl)-2-oxo-imidazol-1-yl]-4,5,12-triazatricyclo[6.3.1.02,6]dodeca-2,5-dien-12-yl]sulfonyl]-5-tetrahydropyran-4-yl-indol-1-yl]-2-methyl-cyclopropyl]-4H-1,2,4-oxadiazol-5-one]	4.98
Cc1cc(-n2nc3c(c2-n2ccn(-c4ccc(C(=O)N(C)C5CC5)c(F)c4F)c2=O)[C@@H]2CCC[C@H](C3)N2C(=O)c2cc3cc([C@H]4CCOC(C)(C)C4)ccc3n2[C@@]2(c3noc(=O)[nH]3)C[C@@H]2C)cc(C)c1F [Compound 547, N-cyclopropyl-4-[3-[(1S,8R)-12-[5-[(4S)-2,2-dimethyltetrahydropyran-4-yl]-1-[(1S,2S)-2-methyl-1-(5-oxo-4H-1,2,4-oxadiazol-3-yl)cyclopropyl]indole-2-carbonyl]-4-(4-fluoro-3,5-dimethyl-phenyl)-4,5,12-triazatricyclo[6.3.1.02,6]dodeca-2,5-dien-3-yl]-2-oxo-imidazol-1-yl]-2,3-difluoro-N-methyl-benzamide]	≤ 5.00
Cc1cc(-n2nc3c(c2-n2ccn(-c4ccc5cnncc5c4F)c2=O)[C@@H]2CC[C@H](C3)N2C(=O)c2cc3cc([C@H]4CCOC5(CC5)C4)ccc3n2[C@@]2(c3noc(=O)[nH]3)C[C@@H]2C)cc(C)c1F [Compound 437, 3-((1S,2S)-1-(2-((4S,7R)-2-(4-fluoro-3,5-dimethylphenyl)-3-(3-(5-fluorophthalazin-6-yl)-2-oxo-2,3-dihydro-1H-imidazol-1-yl)-2,4,5,6,7,8-hexahydro-4,7-epiminocyclohepta [c]pyrazole-9-carbonyl)-5-((S)-4-oxaspiro[2.5]octan-7-yl)-1H-indol-1-yl)-2-methylcyclopropyl)-1,2,4-oxadiazol-5 (4H)-one]	7.26
Cc1cc(-n2nc3c(c2-n2ccn(-c4ccc5c(cnn5C)c4F)c2=O)[C@@H]2CC[C@H](C3)N2C(=O)c2cc3sc(C4CCOC(C)(C)C4)nc3n2[C@@]2(c3noc(=O)[nH]3)C[C@@H]2C)cc(C)c1F (stereo partly drawn) [Compound 245, 3-[(1S,2S)-1-[2-(2,2-dimethyltetrahydropyran-4-yl)-5-[(1S,8R)-4-(4-fluoro-3,5-dimethyl-phenyl)-3-[3-(4-fluoro-1-methyl-indazol-5-yl)-2-oxo-imidazol-1-yl]-4,5,11-triazatricyclo[6.2.1.02,6]undeca-2,5-diene-11-carbonyl]pyrrolo[2,3-d]thiazol-4-yl]-2-methyl-cyclopropyl]-4H-1,2,4-oxadiazol-5-one]	5.29
Cc1cc(-n2nc3c(c2-n2ccn(-c4ccc5c(cnn5C)c4F)c2=O)[C@@H]2CC[C@H](C3)N2C(=O)c2cc3nc([C@H]4CCOC(C)(C)C4)sc3n2[C@@]2(c3noc(=O)[nH]3)C[C@@H]2C)cc(C)c1F [Compound 206, 3-[(1S,2S)-1-[2-[(4S)-2,2-dimethyltetrahydropyran-4-yl]-5-[(1S,8R)-4-(4-fluoro-3,5-dimethyl-phenyl)-3-[3-(4-fluoro-1-methyl-indazol-5-yl)-2-oxo-imidazol-1-yl]-4,5,11-triazatricyclo[6.2.1.02,6]undeca-2,5-diene-11-carbonyl]pyrrolo[3,2-d]thiazol-4-yl]-2-methyl-cyclopropyl]-4H-1,2,4-oxadiazol-5-one]	5.84
Cc1cc(-n2nc3c(c2-n2ccn(-c4ccc5c(cnn5C)c4F)c2=O)C2CCCC(C3)N2C(=O)c2cc3cc([C@H]4CCOC(C)(C)C4)ccc3n2[C@@]2(c3noc(=O)[nH]3)C[C@@H]2C)cc(C)c1F (stereo partly drawn) [Compound 427, 3-((1S,2S)-1-(5-((S)-2,2-dimethyltetrahydro-2H-pyran-4-yl)-2-(3-(3-(4-fluoro-1-methyl-1H-indazol-5-yl)-2-oxo-2,3-dihydro-1H-imidazol-1-yl)-2-(4-fluoro-3,5-dimethylphenyl)-4,5,6,7,8,9-hexahydro-2H-4,8-epiminocycloocta [c]pyrazole-10-carbonyl)-1H-indol-1-yl)-2-methylcyclopropyl)-1,2,4-oxadiazol-5 (4H)-one]	7.11
Cc1cc(-n2nc3c(c2-n2ccn(-c4ccc5c(cnn5C)c4F)c2=O)CN(C(=O)c2cc4cc([C@H]5CCOC(C)(C)C5)ccc4n2[C@@]2(c4noc(=O)[nH]4)C[C@@H]2C)[C@@H](C)CC3)cc(C)c1F [Compound 601, 3-[(1S,2S)-1-[5-[(4S)-2,2-dimethyltetrahydropyran-4-yl]-2-[(6S)-2-(4-fluoro-3,5-dimethyl-phenyl)-3-[3-(4-fluoro-1-methyl-indazol-5-yl)-2-oxo-imidazol-1-yl]-6-methyl-4,6,7,8-tetrahydropyrazolo[4,3-c]azepine-5-carbonyl]indol-1-yl]-2-methyl-cyclopropyl]-4H-1,2,4-oxadiazol-5-one]	≤ 5.00
CCS(=N)(=O)c1ccc(-n2ccn(-c3c4c(nn3-c3cc(C)c(F)c(C)c3)C[C@H]3CC[C@@H]4N3C(=O)c3cc4cc([C@H]5CCOC(C)(C)C5)ccc4n3[C@@]3(c4noc(=O)[nH]4)C[C@@H]3C)c2=O)c(F)c1 (stereo partly drawn) [Compound 428, 3-((1S,2S)-1-(5-((S)-2,2-dimethyltetrahydro-2H-pyran-4-yl)-2-((4S,7R)-3-(3-(4-(ethylsulfonimidoyl)-2-fluorophenyl)-2-oxo-2,3-dihydro-1H-imidazol-1-yl)-2-(4-fluoro-3,5-dimethylphenyl)-2,4,5,6,7,8-hexahydro-4,7-epiminocyclohepta [c]pyrazole-9-carbonyl)-1H-indol-1-yl)-2-methylcyclopropyl)-1,2,4-oxadiazol-5(4H)-one]	7.02
Cc1cc(-n2nc3c(c2-n2ccn(-c4ccc5c(cnn5C)c4F)c2=O)[C@@H]2CC[C@H](C3)N2C(=O)c2cc3cc([C@@H]4CCOC5(CCC5)C4)ccc3n2[C@@]2(c3noc(=O)[nH]3)C[C@@H]2C)cc(C)c1F [Compound 424, 3-((1S,2S)-1-(2-((4S,7R)-3-(3-(4-fluoro-1-methyl-1H-indazol-5-yl)-2-oxo-2,3-dihydro-1H-imidazol-1-yl)-2-(4-fluoro-3,5-dimethylphenyl)-2,4,5,6,7,8-hexahydro-4,7-epiminocyclohepta [c]pyrazole-9-carbonyl)-5-((R)-5-oxaspiro[3.5]nonan-8-yl)-1H-indol-1-yl)-2-methylcyclopropyl)-1,2,4-oxadiazol-5(4H)-one]	≤ 5.00

Results, then the compound that gave them:

pEC50	SMILES
6.90	COc1cc2c(F)c(-n3ccn(-c4c5c(nn4-c4cc(C)c(F)c(C)c4)C[C@H]4CC[C@@H]5N4C(=O)c4cc5cc([C@H]6CCOC(C)(C)C6)ccc5n4[C@@]4(c5noc(=O)[nH]5)C[C@@H]4C)c3=O)ccn2n1 [Compound 431, 3-((1S,2S)-1-(5-((S)-2,2-dimethyltetrahydro-2H-pyran-4-yl)-2-((4S,7R)-3-(3-(4-fluoro-2-methoxypyrazolo[1,5-a]pyridin-5-yl)-2-oxo-2,3-dihydro-1H-imidazol-1-yl)-2-(4-fluoro-3,5-dimethylphenyl)-2,4,5,6,7,8-hexahydro-4,7-epiminocyclohepta [c]pyrazole-9-carbonyl)-1H-indol-1-yl)-2-methylcyclopropyl)-1,2,4-oxadiazol-5 (4H)-one]
≤ 5.00	Cc1cc(-n2nc3c(c2-n2ccn(-c4ccc5c(cnn5C)c4F)c2=O)[C@H]2CC[C@@H](C3)N2C(=O)c2cc3cc([C@@H]4CCOC5(CC5)C4)ccc3n2[C@]2(c3noc(=O)[nH]3)C[C@H]2C)cc(C)c1F [Compound 517, 3-[(1R,2R)-1-[2-[(1R,8S)-4-(4-fluoro-3,5-dimethyl-phenyl)-3-[3-(4-fluoro-1-methyl-indazol-5-yl)-2-oxo-imidazol-1-yl]-4,5,11-triazatricyclo[6.2.1.02,6]undeca-2,5-diene-11-carbonyl]-5-[(7R)-4-oxaspiro[2.5]octan-7-yl]indol-1-yl]-2-methyl-cyclopropyl]-4H-1,2,4-oxadiazol-5-one]
< 5.00	Cc1cc(-n2nc3c(c2-n2ccn(-c4ccc5c(cnn5C)c4F)c2=O)[C@@H]2CC[C@H](C3)N2C(=O)c2cc3cc([C@H]4CCOC(C)(C)C4)ccc3n2[C@@]2(C(=O)NS(=O)(=O)N(C)C)C[C@@H]2C)cc(C)c1F [Compound 205, cis-(1S,2S)-N-(dimethylsulfamoyl)-1-[5-[(4S)-2,2-dimethyltetrahydropyran-4-yl]-2-[(1S,8R)-4-(4-fluoro-3,5-dimethyl-phenyl)-3-[3-(4-fluoro-1-methyl-indazol-5-yl)-2-oxo-imidazol-1-yl]-4,5,11-triazatricyclo[6.2.1.02,6]undeca-2,5-diene-11-carbonyl]indol-1-yl]-2-methyl-cyclopropanecarboxamide]
7.27	Cc1cc(-n2nc3c(c2-n2ccn(-c4ccc5c(cnn5C)c4F)c2=O)[C@H](C)N(C(=O)c2cc4cc(C5CCOCC5)ccc4n2[C@@]2(c4noc(=O)[nH]4)C[C@@H]2C)CCC3)cc(C)c1F [Compound 607, 3-((1S,2S)-1-(2-((S)-3-(3-(4-fluoro-1-methyl-1H-indazol-5-yl)-2-oxo-2,3-dihydro-1H-imidazol-1-yl)-2-(4-fluoro-3,5-dimethylphenyl)-4-methyl-2,4,5,6,7,8-hexahydropyrazolo[4,3-c]azepine-5-carbonyl)-5-(tetrahydro-2H-pyran-4-yl)-1H-indol-1-yl)-2-methylcyclopropyl)-1,2,4-oxadiazol-5 (4H)-one]
5.41	CC[C@@H]1C[C@@]1(c1noc(=O)[nH]1)n1c(C(=O)N2[C@@H]3CC[C@H]2c2c(nn(-c4cc(C)c(F)c(C)c4)c2-n2ccn(-c4ccc5c(cnn5C)c4F)c2=O)C3)cc2cc([C@H]3CCOC(C)(C)C3)ccc21 [Compound 435, 3-[(1R,2R)-1-[5-[(4S)-2,2-dimethyltetrahydropyran-4-yl]-2-[(1S,8R)-4-(4-fluoro-3,5-dimethyl-phenyl)-3-[3-(4-fluoro-1-methyl-indazol-5-yl)-2-oxo-imidazol-1-yl]-4,5,11-triazatricyclo[6.2.1.02,6]undeca-2,5-diene-11-carbonyl]indol-1-yl]-2-ethyl-cyclopropyl]-4H-1,2,4-oxadiazol-5-one]
